For eleven compounds, IC50 results are on record in patent publication EP2951180B1, “2,6,7,8 SUBSTITUTED PURINES AS HDM2 INHIBITORS” (Merck Sharp & Dohme Corp., priority 2013, dated 2014).

Molecules are shown by their SMILES. Where two headings read alike, the source gives them in different places.

For this experiment, the target named is T1, HDM2 (Homo sapiens, UniProt Q00987).
T1 construct: Thioredoxin (N); made in house; host or cells: E. coli strain BL21(DE3)Rosetta
Put plainly: HDM2 FRET assay (inhibition of binding of FITC labeled p53-pocket peptide to HDM2). The settings on record: read-out: FRET IC50. In a few lines:
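Final: 0.5 nM His-HDM2, 3 nM FITC peptide, 0.25 nM Tb anti-His Ab; PBS, 0.01% BSA, 0.01% Tween-20; 0.1% DMSO.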

T1 sequence (Q00987 17-125): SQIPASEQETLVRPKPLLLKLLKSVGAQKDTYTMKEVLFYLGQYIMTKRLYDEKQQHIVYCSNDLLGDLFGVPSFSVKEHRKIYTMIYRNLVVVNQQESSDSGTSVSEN

Broadly, the IC50 is the concentration at which inhibition is half-maximal. Regarding `C[C@@H](Nc1nc(-c2noc(=O)[nH]2)nc2nc(C(C)(O)c3ccccn3)n(C[C@H]3CC[C@H](C)CC3)c12)C1CCC1` (single isomer, unassigned) [Example 22.6], the IC50 (Table 22) is 10.4 nM.

As to `COc1ccc(C)cc1-c1nc2nc(C(=O)O)nc(N[C@H](C)C3CC3(C)C)c2n1Cc1ccc(C(F)(F)F)cc1` (stereo partly drawn) [Example 6.56, 6-{[(1R)-1-(2,2-dimethylcyclopropyl)ethyl]amino}-8-(2-methoxy-5-methylphenyl)-7-[4-(trifluoromethyl)benzyl]-7H-purine-2-carboxylic acid], where the note is “Table 6”, the IC50 was 1410 nM.

Consider `C[C@@H]1OCCN(c2nc3nc(-c4n[nH]c(=O)o4)nc(-c4cccc(Cl)c4)c3n2C[C@H]2CC[C@H](C)CC2)[C@@H]1c1ccccc1` [Example 16.132, 5-{6-(3-chlorophenyl)-7-[(trans-4-methylcyclohexyl)methyl]-8-[(2S,3R)-2-methyl-3-phenylmorpholin-4-yl]-7H-purin-2-yl} - 1,3,4-oxadiazol-2(3H)-one], for which the IC50 (0.5 nM HDM2 (residues 17 to 125), 3nM peptide, two hour incubation at room temperature) came out at 89.5 nM.

For the compound `C[C@@H](Nc1nc(-c2noc(=O)[nH]2)nc2nc(C(O)(CO)c3ccccc3)n(C[C@H]3CC[C@H](C)CC3)c12)C1CCC1` (single isomer, unassigned) [Example 22.61], under “Table 22”, the IC50 is 2.8 nM.

As for `C[C@@H](Nc1nc(C(=O)O)nc2nc(C(=O)Nc3ccccc3)n(Cc3ccc(C(F)(F)F)cc3)c12)C1CCC1` [Example 10.20, (R)-6-((1-Cyclobutylethyl)amino)-8-(phenylcarbamoyl)-7-(4-(trifluoromethyl)benzyl)-7H-purine-2-carboxylic acid], the IC50 (Table 10) came to 189 nM.

Consider `C[C@H]1CC[C@H](Cn2c(C(=O)C3CCOCC3)nc3nc(-c4noc(=O)[nH]4)nc(-c4cccc(Cl)c4)c32)CC1` [Example 23.3, 3-[6-(3-chlorophenyl)-7-[(trans-4-methylcyclohexyl)methyl]-8-(tetrahydro-2H-pyran-4-ylcarbonyl)-7H-purin-2-yl]-1,2,4-oxadiazol-5(4H)-one], for which the IC50 (Table 23) is 21.4 nM.

For `C[C@@H]1CN(S(C)(=O)=O)CCN1c1nc2nc(-c3noc(=O)[nH]3)nc(N[C@H](C)C3CCC3)c2n1C[C@H]1CC[C@H](C)CC1` [Example 17.14, 3-(6-{[(1R)-1-cyclobutylethyl]amino}-7-[(trans-4-methylcyclohexyl)methyl]-8-[(2R)-2-methyl-4-(methylsulfonyl)piperazin-1-yl]-7H-purin-2-yl)-1,2,4-oxadiazol-5(4H)-one], the IC50 (Table 17.2) came to 4.93 nM.

As to `Cc1nonc1C1CCCN1c1nc2nc(-c3noc(=O)[nH]3)nc(N[C@H](C)C3CCC3)c2n1C[C@H]1CC[C@H](C)CC1` (stereo partly drawn) [Example 11.108, 3-(6-{[(1R)-1-cyclobutylethyl]amino}-7-[(trans-4-methylcyclohexyl)methyl]-8-[2-(4-methyl-1,2,5-oxadiazol-3-yl)pyrrolidin-1-yl]-7H-purin-2-yl)-1,2,4-oxadiazol-5(2H)-one], under “Table 11”, the IC50 amounted to 1.6 nM.

As for `COCC1COCCN1c1nc2nc(-c3noc(=O)[nH]3)nc(N[C@H](C)C3CCC3)c2n1C[C@H]1CC[C@H](C)CC1` (single isomer, unassigned) [Example 11.150], the IC50 (Table 11) stood at 6.73 nM.

`Cc1cccc(-c2nc3nc(C(=O)O)nc(N(C)C(C)C4CC4)c3n2Cc2ccc(Cl)cc2)c1` (centres unmarked) [Example 6.11, 7-(4-chlorobenzyl)-6-[(1-cyclopropylethyl)(methyl)amino]-8-(3-methylphenyl)-7H-purine-2-carboxylic acid]: the IC50 (Table 6) was found to be 1420 nM.

Take `C[C@@H](Nc1nc(-c2noc(=O)[nH]2)nc2nc(C3=CCCC3)n(C[C@H]3CC[C@H](C)CC3)c12)C1CCC1` [Example 21.32, 3-(6-{[(1R)-1-cyclobutylethyl]amino}-8-cyclopent-1-en-1-yl-7-[(trans-4-methylcyclohexyl)methyl]-7H-purin-2-yl)-1,2,4-oxadiazol-5(4H)-one]: the IC50 (Table 21) was determined as 4.87 nM.
